Experiments:
[1] = Degradation of molecule C with acid in CD3OD, monitored by 1H NMR; type: physicochemical
Description: […] Molecule C (103.5 mg, 436 μmol) was dissolved in 0.94 mL of CD3OD and 0.5 mL (55.1 mg, 232 μmol) was transferred to a NMR tube. […] […] This reaction was too rapid to monitor the kinetics.

[2] = Solubility in D2O; type: physicochemical
[3] = pKa; type: physicochemical; settings: inferred from partial protonation by benzoic acid in CD3OD
[4] = Degradation of molecule C under neutral conditions, monitored by 1H NMR; type: physicochemical
Description: Kinetics of the degradation of molecule C under neutral conditions (FIG. 2a). Molecule C (363.2 mg, 1.53 mmol) was dissolved in 3.3 mL of CD3OD, from which 0.5 mL (55.1 mg, 232 μmol) was transferred to a NMR tube. After adding an additional 0.5 mL of CD3OD, ^1H NMR spectra were recorded at room temperature every few days. After 33 days, 15% of molecule C degraded to yield N-benzylmethylamine.
This procedure was also followed but the NMR tube was added to a heat bath at 40° C.
For the kinetics in C6D6 at room temperature, a solution of molecule C (33.9 mg, 143 μmol) in 0.7 mL of C6D6 was added to a NMR tube and ^1H NMR spectra were recorded every few days for 30 days.

[5] = pH=7.5, 37° C.; cited from earlier work

Structure (SMILES) | degradation of molecule C ([1]; five equivalents of benzoic acid, 4 min) [%] | degradation of molecule C ([1]; two molar equivalents of p-toluenesulfonic acid, within four minutes) [%] | degradation of molecule C ([1]; two molar equivalents of trifluoroacetic acid, within four minutes) [%] | solubility in D2O [2] | pKa of the protonated sulfenamide [3] | 1H NMR spectrum of molecule C (stability in aprotic solvent) ([4]; C6D6, after 30 days) | degradation of molecule C ([4]; C6D6, room temperature, 30 days) [%] | degradation of molecule C ([4]; CD3OD, 40° C., 33 days) [%] | degradation of molecule C ([4]; CD3OD, room temperature, 33 days, no acid) [%] | half-life of the decomposition [5]
CCCCCCSNCCc1ccccc1 [Molecule C, N-Benzylmethyl-hexanesulfenamide] | 51 | > 90 | > 90 | not soluble | approximately the same pKa as benzoic acid | unchanged | < 3 | 27 | 15 | 
C=CCS[S+]([O-])CC=C (stereo not shown) [allicin] |  |  |  |  |  |  |  |  |  | approximately 2 days

From patent publication US9345776B2, “Biodegradable polymers with sulfenamide bonds for drug delivery applications” (The University of Iowa Research Foundation, priority 2011, dated 2016)
